Test results: US20230322785A1, “ADENOSINE A2A AND A2B RECEPTOR DUAL ANTAGONISTS FOR IMMUNO-ONCOLOGY” (Merck Sharp & Dohme LLC, priority 2020, published 2023)

Biological target: T1, human A2A adenosine receptor (Homo sapiens, UniProt P29274)
T1 construct: expressed in transfected cells; host or cells: HEK293 or CHO cells
Test: A2A binding affinity, Method (B): scintillation proximity assay (SPA) with [3H]SCH58261
Conditions: membranes of HEK293 or CHO cells expressing the human receptor
Text: Method (A) describes the procedure used to measure A2A binding affinity using radioligand binding. Method (B) describes the procedure used to measure A2A binding affinity using SPA technology. The method used to measure A2B binding affinity is also described below. The method used to determine the A2A IC50 value reported for each compound in the table is indicated next to the reported value. The A2B IC50 value measured using the A2B binding affinity assay is shown in the table next to the compound under the corresponding A2A value.
The A2A receptor affinity binding assay measured the amount of binding of a tritiated ligand with high affinity for the A2A adenosine receptor to membranes made from HEK293 or CHO cells recombinantly expressing the human A2A adenosine receptor, in the presence of varying concentrations of a compound of the invention. The data were generated using either filtration binding or a homogenous scintillation proximity assay (SPA).
Method (B): Measurement of A2A Binding Affinity Using SPA
Binding affinity using SPA was conducted as follows. Test compounds (50 nL) were dispensed into individual wells of a 384-well OptiPlate™ well (Perkin Elmer) by Echo® acoustic liquid transfer (Labcyte). 20 µL of 1.25 nM [^3H] SCH58261 ((7-(2-phenylethyl)-5-amino-2-(2-furyl)-pyrazolo-[4,3-e]-1,2,4-triazolo[1,5-c]pyrimidine)) in DPBS assay buffer (Dulbecco’s phosphate buffered saline without calcium and magnesium, ThermoFisher Scientific, Cat. No. A1285601) supplemented with 10 mM MgCl2 was added. A2A receptor-expressing membranes were incubated with 20 µg/mL adenosine deaminase (Roche, Cat. No. 10 102 105 001) for 15 min at room temperature. The receptor-expressing membranes were then combined with wheat germ agglutinin-coated yttrium silicate SPA beads (GE Healthcare, Cat. No. RPNQ0023) in a ratio of […] (w/w) and incubated for 30 min at room temperature. 30 µL of the membrane/bead mixture (0.25 µg and 25 µg per well respectively) were added to the 384-well OptiPlate™ well. To define total and non-specific binding, wells containing 1% DMSO or 1 µM CGS 15943 (Tocris Bioscience, Cat. No. 1699) respectively were also included in the experiment. The plate was incubated for 1 h at room temperature with agitation. The assay plate was then incubated for an h to allow the beads to settle before data were collected using a TopCount® (Perkin Elmer) scintillation counter. After normalization to total and non-specific binding, the percent effect at each compound concentration was calculated. The plot of percent effect versus the log of compound concentration was analyzed electronically using a 4-parameter logistic fit based on the Levenberg-Marquardt algorithm to generate IC50 values.

T1 sequence (P29274 whole entry): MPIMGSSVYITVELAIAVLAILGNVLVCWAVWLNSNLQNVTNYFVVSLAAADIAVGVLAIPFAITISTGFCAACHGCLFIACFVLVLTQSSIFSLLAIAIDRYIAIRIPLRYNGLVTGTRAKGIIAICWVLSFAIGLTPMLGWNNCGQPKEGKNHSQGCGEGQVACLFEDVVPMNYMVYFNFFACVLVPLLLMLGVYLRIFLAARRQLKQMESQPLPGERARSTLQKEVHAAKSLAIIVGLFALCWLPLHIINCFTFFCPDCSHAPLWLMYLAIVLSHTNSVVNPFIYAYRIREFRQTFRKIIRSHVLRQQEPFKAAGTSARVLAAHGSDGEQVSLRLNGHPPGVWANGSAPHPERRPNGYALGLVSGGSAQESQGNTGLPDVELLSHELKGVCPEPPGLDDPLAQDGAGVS

| Compound | IC50 [nM] |
| --- | --- |
| COc1cccc2c1nc(N)n1nc(CNC(=O)CCc3ccccc3)nc21 [Example 2.2, N-((5-amino-7-methoxy-[1,2,4]triazolo[1,5-c]quinazolin-2-yl)methyl)-3-phenylpropanamide] | 12.7 |
| COc1cccc2c1nc(N)n1nc(CNC(=O)CCc3ccc(C(F)(F)F)cc3)nc21 [Example 2.3] | 4.5 |
| COc1ccc(CCC(=O)NCc2nc3c4cccc(OC)c4nc(N)n3n2)cc1 [Example 2.4] | 7.5 |
| COc1cccc2c1nc(N)n1nc(CNC(=O)CCc3cccc(C(F)(F)F)c3)nc21 [Example 2.5] | 25.8 |
| COc1cccc2c1nc(N)n1nc(CC(=O)NCc3cccnc3)nc21 [Example 4.3, 2-(5-amino-7-methoxy-[1,2,4]triazolo[1,5-c]quinazolin-2-yl)-N-(pyridin-3-ylmethyl)acetamide] | 44.3 |
| COc1cccc2c1nc(N)n1nc(CC(=O)NCc3ccc(C(F)(F)F)cc3)nc21 [Example 4.4, 2-(5-amino-7-methoxy-[1,2,4]triazolo[1,5-c]quinazolin-2-y1)-N-(4-(trifluoromethyl)benzyl)acetamide] | 9.4 |
| COc1cccc2c1nc(N)n1nc(CC(=O)NCc3ccc(OC(F)(F)F)cc3)nc21 [Example 4.5, 2-(5-amino-7-methoxy-[1,2,4]triazolo[1,5-c]quinazolin-2-yl)-N-(4-(trifluoromethoxy)benzyl)acetamide] | 5.8 |
| COc1cccc2c1nc(N)n1nc(CC(=O)N[C@@H]3CCOc4cc(F)ccc43)nc21 [Example 4.6, (R)-2-(5-amino-7-methoxy-[1,2,4]triazolo[1,5-c]quinazolin-2-yl)-N-(7-fluorochroman-4-yl)acetamide] | 2 |
| COc1cccc2c1nc(N)n1nc(CC(=O)N[C@H]3CCOc4cc(F)ccc43)nc21 [Example 4.7, (S)-2-(5-amino-7-methoxy-[1,2,4]triazolo[1,5-c]quinazolin-2-yl)-N-(7-fluorochroman-4-yl)acetamide] | 6.7 |
| COc1cccc2c1nc(N)n1nc(CC(=O)N[C@H]3CCOc4ccncc43)nc21 [Example 4.8, (S)-2-(5-amino-7-methoxy-[1,2,4]triazolo[1,5-c]quinazolin-2-yl)-N-(3,4-dihydro-2H-pyrano[3,2-c]pyridin-4-yl)acetamide] | 111 |
| CCN(CC)Cc1nc2c3cccc(OC)c3nc(N)n2n1 [Example 5.3, 2-((diethylamino)methyl)-7-methoxy-[1,2,4]triazolo[1,5-c]quinazolin-5-amine] | 24.4 |
| COc1cccc2c1nc(N)n1nc(CNC(=O)OCc3ccccc3)nc21 [Example 6.1, benzyl ((5-amino-7-methoxy-[1,2,4]triazolo[1,5-c]quinazolin-2-yl)methyl)carbamate] | 5.9 |
| COc1cccc2c1nc(N)n1nc(CNCc3ccc(C(F)(F)F)cc3)nc21 [Example 7.1, 7-methoxy-2-(((4-(trifluoromethyl)benzyl)amino)methyl)-[1,2,4]triazolo[1,5-c]quinazolin-5-amine] | 8.9 |
| COc1cccc2c1nc(N)n1nc(CN[C@@H](C)c3ccc(C(F)(F)F)cc3)nc21 [Example 7.2, (S)-7-methoxy-2-(((1-(4-(trifluoromethyl)phenyl)ethyl)amino)methyl)-[1,2,4]triazolo[1,5-c]quinazolin-5-amine] | 7.2 |
| COc1cccc2c1nc(N)n1nc(CNC(C)(C)c3ccccn3)nc21 [Example 7.3, 7-methoxy-2-(((2-(pyridin-2-yl)propan-2-yl)amino)methyl)-[1,2,4]triazolo[1,5-c]quinazolin-5-amine] | 18.5 |
| CCN(Cc1ccccn1)Cc1nc2c3cccc(OC)c3nc(N)n2n1 [Example 7.4, 2-((ethyl(pyridin-2-ylmethyl)amino)methyl)-7-methoxy-[1,2,4]triazolo[1,5-c]quinazolin-5-amine] | 31.4 |
| COc1cccc2c1nc(N)n1nc(CNC(C)(C)c3cccnc3)nc21 [Example 7.5, 7-methoxy-2-(((2-(pyridin-3-yl)propan-2-yl)amino)methyl)-[1,2,4]triazolo[1,5-c]quinazolin-5-amine] | 20.5 |
| COc1cccc2c1nc(N)n1nc(CNCc3ccc(C(C)(C)C)cc3)nc21 [Example 7.6, 2-(((4-(tert-butyl)benzyl)amino)methyl)-7-methoxy-[1,2,4]triazolo[1,5-c]quinazolin-5-amine] | 4.3 |
| COCc1ccc(CNCc2nc3c4cccc(OC)c4nc(N)n3n2)cc1 [Example 7.7, 7-methoxy-2-(((4-(methoxymethyl)benzyl)amino)methyl)-[1,2,4]triazol[1,5-c]quinazolin-5-amine] | 2.2 |
| COc1cccc2c1nc(N)n1nc(CN[C@H](C)C3CC3)nc21 [Example 7.8, (R)-2-(((1-cyclopropylethyl)amino)methyl)-7-methoxy-[1,2,4]triazolo[1,5-c]quinazolin-5-amine] | 12 |
| COc1cccc2c1nc(N)n1nc(CNCc3ccc(Br)cc3)nc21 [Example 7.9, 2-(((4-bromobenzyl)amino)methyl)-7-methoxy-[1,2,4]triazolo[1,5-c]quinazolin-5-amine] | 5.4 |

Now from value to compound:

| IC50 [nM] | Compound |
| --- | --- |
| 44.3 | COc1cccc2c1nc(N)n1nc(CNC(C)c3ncc(-c4ccc(F)cc4)o3)nc21 (single isomer, unassigned) [Example 10.15, (S or R)-2-(((1-(5-(4-fluorophenyl)oxazol-2-yl)ethyl)amino)methyl)-7-methoxy-[1,2,4]triazolo[1,5-c]quinazolin-5-amine] |
| 13 | CCOC(=O)CN(Cc1nc2c3cccc(OC)c3nc(N)n2n1)CC1CC1 [Entry 17.2] |
| 3.1 | C=CCN(Cc1ccc(OC(F)(F)F)cc1)Cc1nc2c3cccc(OC)c3nc(N)n2n1 [Entry 21.2] |
| 22.4 | COc1cccc2c1nc(N)n1nc(CN[C@H](C)c3ccc(C(F)(F)F)cc3)nc21 [Example 8.2, (R)-7-methoxy-2-(((1-(4-(trifluoromethyl)phenyl)ethyl)amino)methyl)-[1,2,4]triazolo[1,5-c]quinazolin-5-amine] |
| 6.4 | COc1cccc2c1nc(N)n1nc(CN(C)Cc3ccc(C(F)(F)F)cc3)nc21 [Example 8.3, 7-methoxy-2-((methyl(4-(trifluoromethyl)benzyl)amino)methyl)-[1,2,4]triazolo[1,5-c]quinazolin-5-amine] |
| 3.2 | COc1cccc2c1nc(N)n1nc(CNCc3ccccc3C(F)(F)F)nc21 [Example 8.4, 7-methoxy-2-(((2-(trifluoromethyl)benzyl)amino)methyl)-[1,2,4]triazolo[1,5-c]quinazolin-5-amine] |
| 11.2 | COc1cccc2c1nc(N)n1nc(CNCc3cccc(C(F)(F)F)c3)nc21 [Example 8.5, 7-methoxy-2-(((3-(trifluoromethyl)benzyl)amino)methyl)-[1,2,4]triazolo[1,5-c]quinazolin-5-amine] |
| 8.9 | COc1cccc2c1nc(N)n1nc(CNCc3ccc(OC(F)(F)F)cc3)nc21 [Example 8.6, 7-methoxy-2-(((4-(trifluoromethoxy)benzyl)amino)methyl)-[1,2,4]triazolo[1,5-c]quinazolin-5-amine] |
| 6.4 | COc1cccc2c1nc(N)n1nc(CNCc3ccc(S(F)(F)(F)(F)F)cc3)nc21 [Example 8.7, 7-methoxy-2-(((4-(pentafluoro-λ^6-sulfanyl)benzyl)amino)methyl)-[1,2,4]triazolo[1,5-c]quinazolin-5-amine] |
| 17.3 | COc1cccc2c1nc(N)n1nc(CNCCc3ccc(C(F)(F)F)cc3)nc21 [Example 8.8] |
